Results from ChEMBL document CHEMBL1909046, “DrugMatrix in vitro pharmacology data”.

Tests used:
Adenosine receptor A1 = molecular target: T1, Adenosine receptor A1 (Homo sapiens, UniProt P30542); type: cell membranes, CHO, Membrane;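 note: radioligand binding assay at the adenosine A1 receptor, with DPCPX serving as the labelled ligand; in other assays of this panel Not Active means under 50% inhibition at 10 µM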
T1 sequence (P30542 whole entry): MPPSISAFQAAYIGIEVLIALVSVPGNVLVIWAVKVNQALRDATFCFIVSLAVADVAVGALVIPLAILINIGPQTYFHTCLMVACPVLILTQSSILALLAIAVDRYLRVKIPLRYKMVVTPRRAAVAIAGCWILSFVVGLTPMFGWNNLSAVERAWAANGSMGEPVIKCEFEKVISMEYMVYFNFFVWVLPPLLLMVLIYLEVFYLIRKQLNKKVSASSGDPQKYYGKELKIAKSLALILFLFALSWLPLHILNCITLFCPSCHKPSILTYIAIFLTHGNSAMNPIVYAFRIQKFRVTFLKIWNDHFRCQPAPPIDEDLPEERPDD

Glycine receptor = Glycine receptor (Rattus norvegicus, UniProt P22771+P24524+P07727+P20781); type: cell membranes, Wistar, Spinal cord, Membrane; note: in other assays of this panel Not Active means under 50% inhibition at 10 µM
[1] = DRUGMATRIX: Potassium Channel [KATP] radioligand binding (ligand: [3H] Glyburide); type: cell membranes, Membrane; settings: hit-t15; Not Active = under 50% inhibition at 10 µM
[2] = molecular target: T2, Cysteinyl leukotriene receptor 1 (Homo sapiens, UniProt Q9Y271); type: cell membranes, Membrane; settings: cho-k1; note: in other assays of this panel Not Active means under 50% inhibition at 10 µM
T2 sequence (Q9Y271 whole entry): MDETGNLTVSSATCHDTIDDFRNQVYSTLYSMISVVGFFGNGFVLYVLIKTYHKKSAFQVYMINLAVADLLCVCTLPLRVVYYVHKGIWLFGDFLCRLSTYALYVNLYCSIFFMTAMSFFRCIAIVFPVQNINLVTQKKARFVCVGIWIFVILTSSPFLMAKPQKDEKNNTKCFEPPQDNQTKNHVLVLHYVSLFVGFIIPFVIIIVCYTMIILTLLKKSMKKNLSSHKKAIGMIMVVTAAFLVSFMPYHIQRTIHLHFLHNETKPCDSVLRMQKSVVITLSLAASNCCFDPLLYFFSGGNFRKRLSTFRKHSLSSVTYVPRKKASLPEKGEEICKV

[3] = DRUGMATRIX: Atrial Natriuretic Factor (ANF) radioligand binding (ligand: [125I] ANF (rat)); type: cell membranes, Cavia porcellus, Dunkin-Hartley, Adrenal gland, Membrane; settings: Not Active = under 50% inhibition at 10 µM
[4] = molecular target: 5-hydroxytryptamine receptor 6 (Homo sapiens, UniProt P50406); type: cell membranes, HeLa, Membrane; note: in other assays of this panel Not Active means under 50% inhibition at 10 µM
5-hydroxytryptamine receptor 6, sequence (P50406 whole entry): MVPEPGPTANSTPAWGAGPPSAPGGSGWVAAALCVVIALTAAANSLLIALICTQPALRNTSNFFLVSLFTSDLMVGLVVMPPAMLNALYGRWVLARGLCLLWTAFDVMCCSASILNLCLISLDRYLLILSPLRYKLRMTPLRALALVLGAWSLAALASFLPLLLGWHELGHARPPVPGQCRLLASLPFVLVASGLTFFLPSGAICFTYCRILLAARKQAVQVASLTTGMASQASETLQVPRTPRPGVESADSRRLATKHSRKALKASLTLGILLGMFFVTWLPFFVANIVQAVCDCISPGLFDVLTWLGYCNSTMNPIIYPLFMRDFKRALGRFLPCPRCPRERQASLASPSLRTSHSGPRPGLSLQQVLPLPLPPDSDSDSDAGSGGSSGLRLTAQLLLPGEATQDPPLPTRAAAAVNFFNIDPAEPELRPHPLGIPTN

Nitric oxide synthase 1 = Nitric oxide synthase 1 (Rattus norvegicus, UniProt P29476); type: tissue-based, Cerebellum; note: in other assays of this panel Not Active means under 50% inhibition at 10 µM
Nitric oxide synthase 1, sequence (P29476 whole entry): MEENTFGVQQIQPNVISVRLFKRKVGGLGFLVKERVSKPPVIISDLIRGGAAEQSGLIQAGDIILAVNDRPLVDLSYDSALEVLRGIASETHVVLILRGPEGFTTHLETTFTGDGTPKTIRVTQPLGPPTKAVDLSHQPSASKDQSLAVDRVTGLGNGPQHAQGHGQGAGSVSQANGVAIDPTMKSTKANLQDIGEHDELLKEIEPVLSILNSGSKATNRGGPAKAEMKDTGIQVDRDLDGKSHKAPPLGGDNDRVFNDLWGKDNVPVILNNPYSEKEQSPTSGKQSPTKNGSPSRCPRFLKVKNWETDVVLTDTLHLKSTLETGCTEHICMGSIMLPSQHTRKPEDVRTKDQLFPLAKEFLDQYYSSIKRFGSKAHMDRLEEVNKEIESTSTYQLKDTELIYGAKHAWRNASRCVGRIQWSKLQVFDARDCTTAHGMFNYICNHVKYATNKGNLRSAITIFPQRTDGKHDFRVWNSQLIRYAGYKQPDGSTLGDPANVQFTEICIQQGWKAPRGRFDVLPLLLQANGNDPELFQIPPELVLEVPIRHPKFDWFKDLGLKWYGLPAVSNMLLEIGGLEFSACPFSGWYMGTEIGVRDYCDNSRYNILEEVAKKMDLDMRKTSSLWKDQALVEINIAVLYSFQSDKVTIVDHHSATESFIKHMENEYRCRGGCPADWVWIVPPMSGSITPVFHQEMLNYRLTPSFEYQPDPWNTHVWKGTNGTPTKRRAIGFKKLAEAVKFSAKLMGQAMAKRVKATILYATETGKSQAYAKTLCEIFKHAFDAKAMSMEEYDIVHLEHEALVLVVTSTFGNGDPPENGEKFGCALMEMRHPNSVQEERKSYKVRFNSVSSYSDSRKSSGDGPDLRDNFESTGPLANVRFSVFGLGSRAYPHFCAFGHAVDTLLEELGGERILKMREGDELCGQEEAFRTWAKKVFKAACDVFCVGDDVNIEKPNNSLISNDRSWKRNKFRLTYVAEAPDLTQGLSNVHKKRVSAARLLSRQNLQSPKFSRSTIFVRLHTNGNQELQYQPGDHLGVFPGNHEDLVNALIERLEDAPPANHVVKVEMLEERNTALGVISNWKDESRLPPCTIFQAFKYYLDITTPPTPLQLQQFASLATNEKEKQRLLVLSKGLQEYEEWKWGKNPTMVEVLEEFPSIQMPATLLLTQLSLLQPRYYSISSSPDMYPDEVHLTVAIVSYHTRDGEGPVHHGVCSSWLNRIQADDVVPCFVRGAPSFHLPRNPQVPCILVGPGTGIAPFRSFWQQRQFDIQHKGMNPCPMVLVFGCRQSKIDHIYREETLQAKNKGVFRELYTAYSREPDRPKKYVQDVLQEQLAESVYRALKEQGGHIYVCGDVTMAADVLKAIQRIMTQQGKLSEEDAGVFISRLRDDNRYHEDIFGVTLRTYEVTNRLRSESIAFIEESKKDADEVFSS

Compound	IC50 (Adenosine receptor A1; cho)	Ki (Adenosine receptor A1; cho)	IC50 (Glycine receptor)	Ki (Glycine receptor)	IC50 [1]	Ki [1]	IC50 [2]	Ki [2]	IC50 [3]	Ki [3]	IC50 ([4]; hela)	Ki ([4]; hela)	IC50 (Nitric oxide synthase 1)	Ki (Nitric oxide synthase 1)	IC50 (Adenosine receptor A1; read-out: IC50) [nM]	Ki (Adenosine receptor A1; read-out: Ki) [nM]	IC50 ([4]; read-out: IC50) [nM]	Ki ([4]; read-out: Ki) [nM]
STANNOUS FLUORIDE	Not Active	Not Active	Not Active	Not Active	Not Active	Not Active	Not Active	Not Active	Not Active	Not Active	Not Active	Not Active	Not Active	Not Active	–	–	–	–
C[C@@H](O)[C@H]1C(=O)N2C(C(=O)O)=C(S[C@@H]3CN[C@H](C(=O)N(C)C)C3)[C@H](C)[C@H]12 [MEROPENEM]	Not Active	–	Not Active	–	Not Active	Not Active	Not Active	–	Not Active	Not Active	Not Active	–	Not Active	–	–	–	–	–
COc1ncnc(NS(=O)(=O)c2ccc(N)cc2)c1OC [SULFADOXINE]	Not Active	–	Not Active	–	Not Active	Not Active	Not Active	–	Not Active	Not Active	Not Active	–	Not Active	–	–	–	–	–
CCCc1nn(C)c2c(=O)[nH]c(-c3cc(S(=O)(=O)N4CCN(C)CC4)ccc3OCC)nc12	–	–	Not Active	–	Not Active	Not Active	Not Active	–	Not Active	Not Active	Not Active	–	Not Active	–	1490	871	–	–
COc1ccc(/C=C/C(=O)Nc2ccccc2C(=O)O)cc1OC	Not Active	–	Not Active	–	Not Active	Not Active	Not Active	–	Not Active	Not Active	Not Active	–	Not Active	–	–	–	–	–
CC1=C(CC(=O)O)c2cc(F)ccc2/C1=C\c1ccc(S(C)(=O)=O)cc1 [EXISULIND]	Not Active	–	Not Active	–	Not Active	Not Active	Not Active	–	Not Active	Not Active	Not Active	–	Not Active	–	–	–	–	–
CN1C2CCCC1CC(NC(=O)c1nn(C)c3ccccc13)C2 (stereo not given) [GRANISETRON]	Not Active	–	Not Active	–	–	–	Not Active	–	–	–	Not Active	–	Not Active	–	–	–	–	–
Cc1cn([C@H]2C[C@H](N=[N+]=[N-])[C@@H](CO)O2)c(=O)[nH]c1=O [ZIDOVUDINE]	Not Active	–	Not Active	–	Not Active	Not Active	Not Active	–	Not Active	Not Active	Not Active	–	Not Active	–	–	–	–	–
OCCN1CCN(CCCN2c3ccccc3Sc3ccc(C(F)(F)F)cc32)CC1 [FLUPHENAZINE]	Not Active	–	Not Active	–	–	–	Not Active	–	–	–	–	–	Not Active	–	–	–	52	24
CC(C)(C)NC[C@H](O)COc1nsnc1N1CCOCC1 [TIMOLOL]	Not Active	–	Not Active	–	Not Active	Not Active	Not Active	–	Not Active	Not Active	Not Active	–	Not Active	–	–	–	–	–
Nc1nc2c(c(=O)[nH]1)N(C=O)C(CNc1ccc(C(=O)N[C@@H](CCC(=O)O)C(=O)O)cc1)CN2 (stereo not given in full) [LEUCOVORIN]	Not Active	–	Not Active	–	Not Active	Not Active	Not Active	–	Not Active	Not Active	Not Active	–	Not Active	–	–	–	–	–
O=c1n(CCCN2CCN(c3cccc(Cl)c3)CC2)nc2ccccn12 [TRAZODONE]	Not Active	–	Not Active	–	–	–	Not Active	–	–	–	Not Active	–	Not Active	–	–	–	–	–
COc1cc(C(=O)NS(=O)(=O)c2ccccc2C)ccc1Cc1cn(C)c2ccc(NC(=O)OC3CCCC3)cc12 [ZAFIRLUKAST]	Not Active	–	Not Active	–	Not Active	Not Active	–	–	Not Active	Not Active	Not Active	–	Not Active	–	–	–	–	–
CCOC(N)=O	Not Active	–	Not Active	–	Not Active	Not Active	Not Active	–	Not Active	Not Active	Not Active	–	Not Active	–	–	–	–	–
